Among the data in patent publication US11247990B1, “Bicyclic fused pyridine compounds as inhibitors of TAM kinases” (ARRAY BIOPHARMA INC., priority 2017, dated 2022) are IC50 values, retold here.

Bounds are passed on as bounds.

The target in the experiment is GST-tagged recombinant human TYRO3 kinase domain (Homo sapiens (Human), UniProt Q06418). As to the kind of experiment: TYRO3 Enzyme Assay (LanthaScreen Eu Kinase Binding, TR-FRET). Particulars: averaged IC50. How it is done: Compounds of Formula I were screened for their ability to inhibit TYRO3 kinase using Invitrogen's LanthaScreen™ Eu Kinase Binding technology. […] After a 60-minute incubation at 22° C., the reaction was measured using a PerkinElmer EnVision multimode plate reader via TR-FRET dual wavelength detection, and the percent of control (POC) calculated using a ratiometric emission factor. […] The POC values were fit to a 4 parameter logistic curve and the IC50 value is point where the curve crosses 50 POC.
Chain of GST-tagged recombinant human TYRO3 kinase domain (Q06418 518-790): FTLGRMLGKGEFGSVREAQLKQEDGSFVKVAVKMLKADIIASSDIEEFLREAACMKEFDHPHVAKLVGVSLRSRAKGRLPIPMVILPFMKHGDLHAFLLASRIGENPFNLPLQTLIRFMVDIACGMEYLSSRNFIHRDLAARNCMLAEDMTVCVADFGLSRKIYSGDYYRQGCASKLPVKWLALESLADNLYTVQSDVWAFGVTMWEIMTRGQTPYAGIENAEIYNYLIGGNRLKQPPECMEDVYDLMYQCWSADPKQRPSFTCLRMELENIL
A general note: TR-FRET usually uses a lanthanide donor and a delayed reading to cut background.

A word on the IC50: it is the concentration that gives 50% inhibition. Regarding `CCNc1cc2c(cn1)c(-c1cnn(C)c1)nn2[C@H]1CC[C@@H](Oc2ccc(=O)n(CCOC)n2)CC1` [Example 13, 6-(((1s,4s)-4-(6-(ethylamino)-3-(1-methyl-1H-pyrazol-4-yl)-1H-pyrazolo[4,3-c]pyridin-1-yl)cyclohexyl)oxy)-2-(2-methoxyethyl)pyridazin-3(2H)-one], the IC50 lay in the range of 1000 to 10000 nM.

As to `CCn1nc(O[C@H]2CC[C@@H](n3nc(-c4cnn(C)c4)c4cnc(NC)cc43)CC2)ccc1=O` [Example 14, 2-ethyl-6-(((1s,4s)-4-(3-(1-methyl-1H-pyrazol-4-yl)-6-(methylamino)-1H-pyrazolo[4,3-c]pyridin-1-yl)cyclohexyl)oxy)pyridazin-3(2H)-one], the IC50 lay within 1000 to 10000 nM. Then `CNc1cc2c(cn1)c(-c1cnn(C)c1)nn2[C@H]1CC[C@@H](Oc2ccc(=O)n(CC(C)C)n2)CC1` [Example 16, 2-isobutyl-6-(((1s,4s)-4-(3-(1-methyl-1H-pyrazol-4-yl)-6-(methylamino)-1H-pyrazolo[4,3-c]pyridin-1-yl)cyclohexyl)oxy)pyridazin-3(2H)-one], with 1000 to 10000 nM. To `CNc1cc2c(cn1)c(-c1cnn(C)c1)nn2[C@H]1CC[C@@H](Oc2ccc(=O)n(CCOC)n2)CC1` [Example 17, 2-(2-methoxyethyl)-6-(((1s,4s)-4-(3-(1-methyl-1H-pyrazol-4-yl)-6-(methylamino)-1H-pyrazolo[4,3-c]pyridin-1-yl)cyclohexyl)oxy)pyridazin-3(2H)-one] belongs 1000 to 10000 nM. Then `CNc1cc2c(cn1)c(-c1cnn(C)c1)nn2[C@H]1CC[C@@H](Oc2ccc(=O)n(CCN(C)C)n2)CC1` [Example 18, 2-(2-(dimethylamino)ethyl)-6-(((1s,4s)-4-(3-(1-methyl-1H-pyrazol-4-yl)-6-(methylamino)-1H-pyrazolo[4,3-c]pyridin-1-yl)cyclohexyl)oxy)pyridazin-3(2H)-one], with 1000 to 10000 nM; and `CNc1cc2c(cn1)c(-c1cnn(C)c1)nn2[C@H]1CC[C@@H](Oc2ccc(=O)n(Cc3ccc(OC)cc3)n2)CC1` [Example 20, 2-(4-methoxybenzyl)-6-(((1s,4s)-4-(3-(1-methyl-1H-pyrazol-4-yl)-6-(methylamino)-1H-pyrazolo[4,3-c]pyridin-1-yl)cyclohexyl)oxy)pyridazin-3(2H)-one], with 1000 to 10000 nM; and `CNc1cc2c(cn1)c(-c1cnn(C)c1)nn2[C@H]1CC[C@@H](Oc2ccc(=O)[nH]n2)CC1` [Example 21, 6-(((1s,4s)-4-(3-(1-methyl-1H-pyrazol-4-yl)-6-(methylamino)-1H-pyrazolo[4,3-c]pyridin-1-yl)cyclohexyl)oxy)pyridazin-3(2H)-one], with 1000 to 10000 nM.

On to `CNc1cc2c(cn1)c(-c1cnn(C)c1)nn2[C@H]1CC[C@@H](Oc2ccn(C)c(=O)c2)CC1` [Example 24, 1-methyl-4-(((1s,4s)-4-(3-(1-methyl-1H-pyrazol-4-yl)-6-(methylamino)-1H-pyrazolo[4,3-c]pyridin-1-yl)cyclohexyl)oxy)pyridin-2(1H)-one], for which the IC50 was below 10 nM. Consider `CNc1cc2c(cn1)c(-c1cnc(N3CCOCC3)nc1)nn2[C@H]1CC[C@@H](Oc2ccc(=O)n(C)n2)CC1` [Example 51, 2-methyl-6-(((1s,4s)-4-(6-(methylamino)-3-(2-morpholinopyrimidin-5-yl)-1H-pyrazolo[4,3-c]pyridin-1-yl)cyclohexyl)oxy)pyridazin-3(2H)-one], for which the IC50 lay in the range of 1000 to 10000 nM. `CNc1cc2c(cn1)c(-c1cncc(C(F)(F)F)c1)nn2[C@H]1CC[C@@H](Oc2ccc(=O)n(C)n2)CC1` [Example 52, 2-methyl-6-(((1s,4s)-4-(6-(methylamino)-3-(5-(trifluoromethyl)pyridin-3-yl)-1H-pyrazolo[4,3-c]pyridin-1-yl)cyclohexyl)oxy)pyridazin-3(2H)-one]: the IC50 was 1000 to 10000 nM.

In the case of `CCNc1cc2c(cn1)c(-c1cnn(C(C)(C)C#N)c1)nn2[C@H]1CC[C@@H](Oc2ccc(=O)n(CC)n2)CC1` [Example 57, 2-(4-(1-((1s,4s)-4-((1-ethyl-6-oxo-1,6-dihydropyridazin-3-yl)oxy)cyclohexyl)-6-(ethylamino)-1H-pyrazolo[4,3-c]pyridin-3-yl)-1H-pyrazol-1-yl)-2-methylpropanenitrile], the IC50 lay within 1000 to 10000 nM. To `CCNc1cc2c(cn1)c(-c1ccc(CN3CC(F)C3)cc1)nn2[C@H]1CC[C@@H](Oc2ccc(=O)n(C)n2)CC1` [Example 62, 6-(((1s,4s)-4-(6-(ethylamino)-3-(4-((3-fluoroazetidin-1-yl)methyl)phenyl)-1H-pyrazolo[4,3-c]pyridin-1-yl)cyclohexyl)oxy)-2-methylpyridazin-3(2H)-one] belongs 1000 to 10000 nM; to `Cn1cc(-c2nn([C@H]3CC[C@@H](Oc4ccc(=O)n(C)n4)CC3)c3cc(Nc4cccc(F)c4)ncc23)cn1` [Example 66], below 10 nM. To `CNc1cc2c(cn1)c(-c1ccn(C)n1)cn2[C@H]1CC[C@@H](Oc2ccc(=O)n(C)n2)CC1` [Example 74, 2-methyl-6-(((1s,4s)-4-(3-(1-methyl-1H-pyrazol-3-yl)-6-(methylamino)-1H-pyrrolo[3,2-c]pyridin-1-yl)cyclohexyl)oxy)pyridazin-3(2H)-one] belongs 1000 to 10000 nM. `CNc1cc2c(cn1)c(-c1cnn(C)c1)nn2[C@H]1CC[C@@H](Oc2cc(=O)cnn2C)CC1` [Example 114, 1-methyl-6-(((1s,4s)-4-(3-(1-methyl-1H-pyrazol-4-yl)-6-(methylamino)-1H-pyrazolo[4,3-c]pyridin-1-yl)cyclohexyl)oxy)pyridazin-4(1H)-one]: the IC50 is 1000 to 10000 nM.

As to `CNc1cc2c(cn1)c(-c1ccc(F)cc1)nn2[C@H]1CC[C@@H](Oc2ccccn2)CC1` [Example 118, 3-(4-fluorophenyl)-N-methyl-1-((1s,4s)-4-(pyridin-2-yloxy)cyclohexyl)-1H-pyrazolo[4,3-c]pyridin-6-amine], the 50% inhibitory concentration (IC50) lay in the range of 1000 to 10000 nM. To `CNc1cc2c(cn1)c(-c1cnn(C)c1)nn2[C@H]1CC[C@H](Oc2cccnn2)CC1` [Example 119, N-methyl-3-(1-methyl-1H-pyrazol-4-yl)-1-((1r,4r)-4-(pyridazin-3-yloxy)cyclohexyl)-1H-pyrazolo[4,3-c]pyridin-6-amine] belongs 1000 to 10000 nM; to `CNc1cc2c(cn1)c(-c1cnn(C)c1)nn2[C@H]1CC[C@@H](Oc2cccnn2)CC1` [Example 120, N-methyl-3-(1-methyl-1H-pyrazol-4-yl)-1-((1s,4s)-4-(pyridazin-3-yloxy)cyclohexyl)-1H-pyrazolo[4,3-c]pyridin-6-amine], 1000 to 10000 nM. For `CNc1cc2c(cn1)c(-c1cnn(C)c1)nn2[C@H]1CC[C@H](Oc2ccnc(C)c2)CC1` [Example 121, N-methyl-3-(1-methyl-1H-pyrazol-4-yl)-1-((1r,4r)-4-((2-methylpyridin-4-yl)oxy)cyclohexyl)-1H-pyrazolo[4,3-c]pyridin-6-amine], the IC50 is 1000 to 10000 nM. Then `CNc1cc2c(cn1)c(-c1cnn(C)c1)nn2[C@H]1CC[C@@H](Oc2ccc(OC)nn2)CC1` [Example 123, 1-((1s,4s)-4-((6-methoxypyridazin-3-yl)oxy)cyclohexyl)-N-methyl-3-(1-methyl-1H-pyrazol-4-yl)-1H-pyrazolo[4,3-c]pyridin-6-amine], with 1000 to 10000 nM. To `CNc1cc2c(cn1)c(-c1cnn(C)c1)nn2[C@H]1CC[C@@H](Oc2nccc(C)n2)CC1` [Example 126, N-methyl-3-(1-methyl-1H-pyrazol-4-yl)-1-((1s,4s)-4-((4-methylpyrimidin-2-yl)oxy)cyclohexyl)-1H-pyrazolo[4,3-c]pyridin-6-amine] belongs 1000 to 10000 nM; to `CNc1cc2c(cn1)c(-c1cnn(C)c1)nn2[C@H]1CC[C@@H](Oc2ccc(C#N)cn2)CC1` [Example 127, 6-(((1s,4s)-4-(3-(1-methyl-1H-pyrazol-4-yl)-6-(methylamino)-1H-pyrazolo[4,3-c]pyridin-1-yl)cyclohexyl)oxy)nicotinonitrile], 1000 to 10000 nM. For `CNc1cc2c(cn1)c(-c1cnn(C)c1)nn2[C@H]1CC[C@@H](Oc2ccc(OC)nc2)CC1` [Example 130, 1-((1s,4s)-4-((6-methoxypyridin-3-yl)oxy)cyclohexyl)-N-methyl-3-(1-methyl-1H-pyrazol-4-yl)-1H-pyrazolo[4,3-c]pyridin-6-amine], the 50% inhibitory concentration (IC50) lay in the range of 1000 to 10000 nM.

`CNc1cc2c(cn1)c(-c1cnn(C)c1)nn2[C@H]1CC[C@@H](Oc2ccc(OCc3ccccc3)nc2)CC1` [Example 131, 1-((1s,4s)-4-((6-(benzyloxy)pyridin-3-yl)oxy)cyclohexyl)-N-methyl-3-(1-methyl-1H-pyrazol-4-yl)-1H-pyrazolo[4,3-c]pyrdin-6-amine]: the IC50 is 1000 to 10000 nM. As to `CNc1cc2c(cn1)c(-c1cnn(C)c1)nn2[C@H]1CC[C@@H](Oc2cncnc2)CC1` [Example 141, N-methyl-3-(1-methyl-1H-pyrazol-4-yl)-1-((1s,4s)-4-(pyrimidin-5-yloxy)cyclohexyl)-1H-pyrazolo[4,3-c]pyridin-6-amine], the IC50 fell in the range of 1000 to 10000 nM. To `CNc1cc2c(cn1)c(-c1cnn(C)c1)nn2C1CCC(Oc2cc(N(C)C)cnn2)CC1` (stereo not shown) [Example 154, 1-((1s,4s)-4-((5-(dimethylamino)pyridazin-3-yl)oxy)cyclohexyl)-N-methyl-3-(1-methyl-1H-pyrazol-4-yl)-1H-pyrazolo[4,3-c]pyridin-6-amine] belongs 1000 to 10000 nM; to `CNc1cc2c(cn1)c(-c1cnn(C)c1)nn2[C@H]1CC[C@@H](Oc2cccc(C(F)(F)F)n2)CC1` [Example 174, N-methyl-3-(1-methyl-1H-pyrazol-4-yl)-1-((1s,4s)-4-((6-(trifluoromethyl)pyridin-2-yl)oxy)cyclohexyl)-1H-pyrazolo[4,3-c]pyridin-6-amine], 1000 to 10000 nM; to `CNc1cc2c(cn1)c(-c1cnn(C)c1)nn2[C@H]1CC[C@@H](Oc2nc(C)ncc2OC)CC1` [Example 176, 1-((1s,4s)-4-((5-methoxy-2-methylpyrimidin-4-yl)oxy)cyclohexyl)-N-methyl-3-(1-methyl-1H-pyrazol-4-yl)-1H-pyrazolo[4,3-c]pyridin-6-amine], 1000 to 10000 nM.
